For assay [1], the target named is T1, HCV NS5B RdRp genotype 1b (Hepatitis C virus genotype 1b, UniProt Q9WMX2).
T1 construct: The protein was expressed with an 18 amino acid C-terminal truncation to enhance the solubility; made in house; host or cells: E. coli BL21 (DE3), pET21a
Briefly: Modified HCV NS5B RdRp enzyme assay (preincubation protocol). In kind it is biochemical. The method, then:
HCV NS5B RdRp cloning, expression, and purification. The cDNA encoding the NS5B protein of HCV, genotype 1b, was cloned into the pET21a expression vector. The protein was expressed with an 18 amino acid C-terminal truncation to enhance the solubility. The E. coli competent cell line BL21 (DE3) was used for expression of the protein. Cultures were grown at 37° C. for ˜4 hours until the cultures reached an optical density of 2.0 at 600 nm. The cultures were cooled to 20° C. and induced with 1 mM IPTG. Fresh ampicillin was added to a final concentration of 50 μg/ml and the cells were grown overnight at 20° C.
Cell pellets (3L) were lysed for purification to yield 15-24 mgs of purified NS5B. The lysis buffer consisted of 20 mM Tris-HCl, pH 7.4, 500 mM NaCl, 0.5% triton X-100, 1 mM DTT, 1 mM EDTA, 20% glycerol, 0.5 mg/ml lysozyme, 10 mM MgCl2, 15 ug/ml deoxyribonuclease I, and Complete TM protease inhibitor tablets (Roche). After addition of the lysis buffer, frozen cell pellets were resuspended using a tissue homogenizer. To reduce the viscosity of the sample, aliquots of the lysate were sonicated on ice using a microtip attached to a Branson sonicator. The sonicated lysate was centrifuged at 100,000×g for 1 hr at 4° C. and filtered through a 0.2 μm filter unit (Corning).
The protein was purified using three sequential chromatography steps: Heparin sepharose CL-6B, polyU sepharose 4B, and Hitrap SP sepharose (Pharmacia). The chromatography buffers were identical to the lysis buffer but contained no lysozyme, deoxyribonuclease I, MgCl2 or protease inhibitor and the NaCl concentration of the buffer was adjusted according to the requirements for charging the protein onto the column. Each column was eluted with a NaCl gradient which varied in length from 5-50 column volumes depending on the column type. After the final chromatography step, the resulting purity of the enzyme is >90% based on SDS-PAGE analysis. The enzyme was aliquoted and stored at −80° C.
Standard HCVNS5B RdRp enzyme assay. HCV RdRp genotype 1b assays were run in a final volume of 60 μl in 96 well plates (Costar 3912). The assay buffer is composed of 20 mM Hepes, pH 7.5, 2.5 mM KCl, 2.5 mM MgCl2, 1 mM DTT, 1.6 U RNAse inhibitor (Promega N2515), 0.1 mg/ml BSA (Promega R3961), and 2% glycerol. All compounds were serially diluted (3-fold) in DMSO and diluted further in water such that the final concentration of DMSO in the assay was 2%. HCV RdRp genotype 1b enzyme was used at a final concentration of 28 nM. A polyA template was used at 6 nM, and a biotinylated oligo-dT 12 primer was used at 180 nM final concentration. Template was obtained commercially (Amersham 27-4110). Biotinylated primer was prepared by Sigma Genosys. 3H-UTP was used at 0.6 μCi (0.29 μM total UTP). Reactions were initiated by the addition of enzyme, incubated at 30° C. for 60 min, and stopped by adding 25 μl of 50 mM EDTA containing SPA beads (4 μg/μl, Amersham RPNQ 0007). Plates were read on a Packard Top Count NXT after >1 hr incubation at room temperature.
Modified HCVNS5B RdRp enzyme assay. A modified enzyme assay was performed essentially as described for the standard enzyme assay except for the following: The biotinylated oligo dT12 primer was precaptured on streptavidin-coated SPA beads by mixing primer and beads in assay buffer and incubating at room temperature for one hour. Unbound primer was removed after centrifugation. The primer-bound beads were resuspended in 20 mM Hepes buffer, pH 7.5 and used in the assay at final concentrations of 20 nM primer and 0.67 μg/μl beads. Order of addition in the assay: enzyme (14 nM) was added to diluted compound followed by the addition of a mixture of template (0.2 nM), 3H-UTP (0.6 μCi, 0.29 μM), and primer-bound beads, to initiate the reaction; concentrations given are final. Reactions were allowed to proceed for 4 hours at 30° C.
IC50 values for compounds were determined using seven different [I]. […]

In a further assay the test system is HCV replicon cells. Briefly: HCV replicon FRET assay. In kind it is cell-based. The note with it: Hepatitis C virus. The source says: FRET Assay Preparation. To perform the HCV FRET screening assay, 96-well cell culture plates were used. The FRET peptide (Anaspec, Inc.) (Taliani et al., Anal. Biochem. 1996, 240, 60-67) contains a fluorescence donor, EDANS, near one end of the peptide and an acceptor, DABCYL, near the other end. The fluorescence of the peptide is quenched by […] resonance energy transfer (RET) between the donor and the acceptor, but as the NS3 protease cleaves the peptide the products are released from RET quenching and the fluorescence of the donor becomes apparent. The assay reagent was made as follows: 5× cell Luciferase cell culture lysis reagent from Promega (#E153A) diluted to 1× with dH2O, NaCl added to 150 mM final, the FRET peptide diluted to 20 uM final from a 2 mM stock.
To prepare plates, HCV replicon cells, with or without a Renilla luciferase reporter gene, were trypsinized and placed into each well of a 96-well plate with titrated test compounds added in columns 3 through 12; columns 1 and 2 contained a control compound (HCV protease inhibitor), and the bottom row contained cells without compound. The plates were then placed in a CO2 incubator at 37° C.
Assays. Subsequent to addition of the test compounds described above (FRET Assay Preparation), at various times the plate was removed and Alamar blue solution (Trek Diagnostics, #00-100) was added per well as a measure of cellular toxicity. After reading in a Cytoflour 4000 instrument (PE Biosystems), plates were rinsed with PBS and then used for FRET assay by the addition of 30 ul of the FRET peptide assay reagent described above (FRET Assay Preparation) per well. The plate was then placed into the Cytoflour 4000 instrument which had been set to 340 excite/490 emission, automatic mode for 20 cycles and the plate read in a kinetic mode. Typically, the signal to noise using an endpoint analysis after the reads was at least three-fold. Alternatively, after Alamar blue reading, plates were rinsed with PBS, 50 ul of DMEM (high glucose) without phenol red was added and plates were then used for luciferase assay using the Promega Dual-Glo Luciferase Assay System.
Compound analysis was determined by quantification of the relative HCV replicon inhibition and the relative cytotoxicity values. To calculate cytoxicity values, the average Alamar Blue fluorescence signals from the control wells were set as 100% non-toxic. The individual signals in each of the compound test wells were then divided by the average control signal and multiplied by 100% to determine […]. To calculate the HCV replicon inhibition values, an average background value was obtained from the two wells containing the highest amount of HCV protease inhibitor at the end of the assay period. These numbers were similar to those obtained from naïve Huh-7 cells.
The background numbers were then subtracted from the average signal obtained from the control wells and this number was used as 100% activity. The individual signals in each of the compound test wells were then divided by the averaged control values after background subtraction and multiplied by 100% to determine percent activity. EC50 values for a protease inhibitor titration were calculated as the concentration which caused a 50% reduction in FRET or luciferase activity. The two numbers generated for the compound plate, percent cytoxicity and percent activity were used to determine compounds of interest for further analysis.
(Replicon systems follow genome replication, usually without infectious particles.)

From US7452876B2, “Cyclopropyl fused indolobenzazepine HCV NS5B inhibitors” (Bristol-Myers Squibb Company, priority 2006, dated 2008) come the findings set out here.

T1 sequence (Q9WMX2 2420-2992): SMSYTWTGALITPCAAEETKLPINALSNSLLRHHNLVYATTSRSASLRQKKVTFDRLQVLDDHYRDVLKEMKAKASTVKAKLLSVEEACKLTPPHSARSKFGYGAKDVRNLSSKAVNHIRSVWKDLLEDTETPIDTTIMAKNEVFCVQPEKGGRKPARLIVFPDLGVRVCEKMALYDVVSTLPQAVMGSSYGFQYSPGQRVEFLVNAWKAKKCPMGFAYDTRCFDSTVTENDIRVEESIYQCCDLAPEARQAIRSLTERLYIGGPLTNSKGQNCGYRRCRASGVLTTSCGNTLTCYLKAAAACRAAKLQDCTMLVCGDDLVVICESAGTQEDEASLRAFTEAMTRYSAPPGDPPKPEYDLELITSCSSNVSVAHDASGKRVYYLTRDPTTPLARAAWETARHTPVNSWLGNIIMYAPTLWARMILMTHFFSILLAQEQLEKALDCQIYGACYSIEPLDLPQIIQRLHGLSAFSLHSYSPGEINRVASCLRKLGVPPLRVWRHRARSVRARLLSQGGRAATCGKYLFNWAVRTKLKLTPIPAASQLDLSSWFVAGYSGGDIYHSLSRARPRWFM

Consider `COc1ccc2c(c1)C1CC1(NC(=O)N1C[C@@H](C)O[C@@H](C)C1)Cn1c-2c(C2CCCCC2)c2ccc(C(=O)NS(=O)(=O)N(C)C)cc21` (stereo partly shown), for which the IC50 (as a rule, the point on the concentration scale where inhibition reaches its midpoint) in assay [1] was 20 to 1000 nM. Moreover, the concentration giving a half-maximal response (EC50) (as a rule, the concentration that produces a half-maximal response) in the assay with HCV replicon cells was 70 to 1000 nM.

`O=C(O)c1ccc2c(C3CCCCC3)c3n(c2c1)CC1(NC(=O)N2CCOCC2)CC1c1ccccc1-3` (stereo not shown) displayed an IC50 in assay [1] of 20 to 1000 nM. Also, in the assay on HCV replicon cells, the EC50 is 70 to 1000 nM.

On to `COc1ccc2c(c1)C1CC1(NC(=O)N1CCOCC1)Cn1c-2c(C2CCCCC2)c2ccc(C(=O)O)cc21` (stereo not shown), for which the IC50 in assay [1] lay within 20 to 1000 nM. Further, the EC50 in the assay with HCV replicon cells lay within 70 to 1000 nM.

Consider `COC(=O)c1ccc2c(C3CCCCC3)c3n(c2c1)CC1(NC(=O)N2CCOCC2)CC1c1ccccc1-3` (stereo not shown), for which the IC50 in assay [1] was 20 to 1000 nM.

`COC(=O)c1ccc2c(C3CCCCC3)c3n(c2c1)CC1(NC(=O)N2CCOCC2)CC1c1cc(OC)ccc1-3` (stereo not shown) had an IC50 in assay [1] of 20 to 1000 nM.

On to `COc1ccc2c(c1)C1CC1(NC(=O)N1CC(OC)C1)Cn1c-2c(C2CCCCC2)c2ccc(C(=O)NS(=O)(=O)N(C)C)cc21` (stereo not shown), for which the IC50 in assay [1] lay in the range of 20 to 1000 nM. Further, in the assay on HCV replicon cells, the concentration for a half-maximal effect (EC50) fell in the range of 20 to 1000 nM.

`COc1ccc2c(c1)C1CC1(NC(=O)OC(C)(C)C)Cn1c-2c(C2CCCCC2)c2ccc(C(=O)NS(=O)(=O)N(C)C)cc21` (stereo not shown) registered an IC50 in assay [1] of 20 to 1000 nM. The same compound had a 50% effective concentration (EC50) with HCV replicon cells of 20 to 1000 nM.

Consider `COc1ccc2c(c1)C1CC1(NC(=O)N(C)CC1CCOCC1)Cn1c-2c(C2CCCCC2)c2ccc(C(=O)NS(=O)(=O)N(C)C)cc21` (stereo not shown), for which, in assay [1], the IC50 was 20 to 1000 nM. In the assay with HCV replicon cells, the concentration for a half-maximal effect (EC50) is 20 to 1000 nM.

For the compound `COc1ccc2c(c1)C1CC1(NC(=O)N(C)CCN(C)C)Cn1c-2c(C2CCCCC2)c2ccc(C(=O)NS(=O)(=O)N(C)C)cc21` (stereo not shown), the IC50 in assay [1] fell in the range of 20 to 1000 nM. Besides, the EC50 with HCV replicon cells was 20 to 1000 nM.

In assay [1], `COc1ccc2c(c1)C1CC1(N)Cn1c-2c(C2CCCCC2)c2ccc(C(=O)NS(=O)(=O)N(C)C)cc21` (stereo not shown) gave a half-inhibitory concentration (IC50) of 20 to 1000 nM. The compound also displayed a half-maximal effective concentration (EC50) with HCV replicon cells of 20 to 1000 nM.

Compound `COc1ccc2c(c1)[C@@H]1C[C@]1(NC(=O)OC(C)(C)C)Cn1c-2c(C2CCCCC2)c2ccc(C(=O)NS(=O)(=O)N(C)C)cc21` returned an IC50 in assay [1] of 20 to 1000 nM. The same compound registered an EC50 in the assay on HCV replicon cells of 20 to 1000 nM.

In assay [1], `COc1ccc2c(c1)[C@@H]1C[C@]1(N)Cn1c-2c(C2CCCCC2)c2ccc(C(=O)NS(=O)(=O)N(C)C)cc21` returned a concentration for half-maximal inhibition (IC50) of 20 to 1000 nM. The compound also gave a 50% effective concentration (EC50) in the assay with HCV replicon cells of 20 to 1000 nM.

As to `COCCNC(=O)CN(C)C(=O)NC12CC1c1cc(OC)ccc1-c1c(C3CCCCC3)c3ccc(C(=O)NS(=O)(=O)N(C)C)cc3n1C2` (stereo not shown), in assay [1], the 50% inhibitory concentration (IC50) was in the range of 20 to 1000 nM. Besides, the EC50 in the assay on HCV replicon cells is 20 to 1000 nM.

In turn, `COc1ccc2c(c1)C1CC1(NC(=O)N(C)CC(N)=O)Cn1c-2c(C2CCCCC2)c2ccc(C(=O)NS(=O)(=O)N(C)C)cc21` (stereo not shown) registered an IC50 in assay [1] of 20 to 1000 nM. The compound also showed an EC50 in the assay on HCV replicon cells of 20 to 1000 nM.

`COc1ccc2c(c1)C1CC1(NC(=O)N(C)CC(=O)N1CCN(C)CC1)Cn1c-2c(C2CCCCC2)c2ccc(C(=O)NS(=O)(=O)N(C)C)cc21` (stereo not shown) displayed an IC50 in assay [1] of 20 to 1000 nM. This compound had a concentration giving a half-maximal response (EC50) with HCV replicon cells of 20 to 1000 nM.

As to `CNC12CC1c1cc(OC)ccc1-c1c(C3CCCCC3)c3ccc(C(=O)NS(=O)(=O)N(C)C)cc3n1C2` (stereo not shown), the IC50 in assay [1] lay in the range of 20 to 1000 nM.

In assay [1], `COc1ccc2c(c1)C1CC1(NC(=O)N1C[C@@H](C)N(C)[C@@H](C)C1)Cn1c-2c(C2CCCCC2)c2ccc(C(=O)NS(=O)(=O)N(C)C)cc21` (stereo partly shown) returned a half-inhibitory concentration (IC50) of 20 to 1000 nM. The compound also yielded an EC50 in the assay with HCV replicon cells of 20 to 1000 nM.
